# Results published in the supplement of paper PMC10307832.
# Compound: O=C(Nc1cccc(C(F)(F)F)c1)Nc1cc(S(=O)(=O)NC2CC2)ccc1-c1ccsc1 [AGI-6780]
# Experiment: relative viability (nuclei count vs DMSO), 5 days (fraction); higher = more cells survive
# Method in brief: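 Lung cancer cell lines in 1536-well plates were kept overnight at 37 °C, then pinned with five library-drug doses (not always all listed) spaced by √10 on vehicle-anchored plates. After 5 days without medium change, cells were fixed, permeabilised and Hoechst-stained in one step, imaged at 4×, and nuclei were counted with MetaXpress. Viability is treated-well nuclei divided by vehicle-well nuclei, taken as the median over plates. Plates passed only with control CV below 25% and at least one doubling.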
Cell Line,relative viability (0.08 µM),relative viability (0.253 µM),relative viability (0.8 µM),relative viability (2.53 µM),relative viability (8 µM)
COR-L23,1.05,1.12,0.949,1.06,1.01
LK-2,0.945,1.02,1.08,–,1.16
PC-14,1.02,1.01,1.05,1.02,1.04
SW 1573,1.03,1.02,1.04,0.739,0.957
NCI-H2085,1.02,1,1.05,1.07,0.993
NCI-H441,1.08,1.03,1.04,0.786,1.16
NCI-H1648,0.735,0.999,0.983,0.942,1.08
NCI-H2126,1.06,1.07,0.981,0.796,1.08
LXF-289,0.994,1.01,1.02,1.13,0.984
HCC-44,0.955,1.01,0.995,1.04,0.959
EMC-BAC-2,–,1.01,1.01,0.775,1.05
NCI-H522,0.972,0.965,0.909,0.865,0.962
NCI-H1792,0.856,1.22,0.946,0.727,0.986
NCI-H661,1,1,1.08,0.876,0.947
LCLC-103H,1.05,1.08,0.963,0.861,0.941
NCI-H1793,1.19,1.08,1.03,0.768,0.897
HOP-62,1.03,1.01,0.994,0.984,1.03
HCC-827,1.06,1.06,1.01,1.07,1.02
NCI-H2087,1.03,1.18,1.12,1.01,1.12
RERF-LC-KJ,1.05,1.06,0.977,0.798,0.951
NCI-H2342,0.984,1.01,1.15,0.848,1.2
A-427,0.994,0.919,1.1,0.815,1.04
HARA,1.04,1.15,1.02,0.942,1.17
HCC-78,0.876,1.04,1.05,0.982,1.02
NCI-H1755,1.02,0.983,0.964,0.915,1
NCI-H23,0.927,1.11,0.9,0.796,1.16

Cell Line,relative viability (0.08 µM),relative viability (0.253 µM),relative viability (0.8 µM),relative viability (2.53 µM),relative viability (8 µM)
ABC-1,0.799,1.06,1.08,0.851,0.901
Calu-6,1.03,1.01,1.07,0.993,1.03
NCI-H838,0.984,0.996,0.995,0.83,0.957
NCI-H2009,0.968,1.03,0.94,1.1,1.05
NCI-H1563,0.999,1.02,0.949,0.87,0.98
NCI-H596,0.96,0.954,0.87,0.724,1.12
201T,0.996,1,0.997,0.989,0.995
NCI-H358,1.1,0.911,0.95,0.794,0.916
EBC-1,1.07,1.04,0.985,1,1
NCI-H1651,1.03,1.04,0.957,0.921,1.02
LU99A,0.975,0.928,0.987,0.839,0.931
LC-2-ad,1.02,1.05,1.1,0.96,0.996
NCI-H1975,0.94,1.08,0.918,0.873,0.921
NCI-H322M,0.896,0.927,1.07,0.922,0.965
NCI-H1666,1,0.974,0.981,0.843,1.06
EKVX,0.986,1.03,0.938,0.799,0.969
NCI-H1355,1.02,1.07,1.03,0.823,1
PC-3 [JPC-3],0.982,1.04,1.08,1.08,0.962
NCI-H650,0.873,1.04,0.937,0.843,1.06
UMC-11,0.95,0.955,1.2,–,1.13
NCI-H460,0.987,0.99,0.998,0.977,0.992
NCI-H727,0.988,0.902,1.26,0.885,0.987
SK-MES-1,1.04,1.03,0.99,0.958,0.99
NCI-H1915,1.02,0.995,1.01,0.994,1.05
ChaGo-K-1,1.01,1.02,1.06,0.921,1
NCI-H1437,0.943,1,1.04,1,0.997

Cell Line,relative viability (0.08 µM),relative viability (0.253 µM),relative viability (0.8 µM),relative viability (2.53 µM),relative viability (8 µM)
CAL-12T,0.962,1.02,1.18,1.03,1.07
A549,0.992,0.992,1.08,0.745,0.992
NCI-H2405,0.995,1,0.842,0.923,1.01
LOU-NH91,0.953,0.992,1.04,0.923,0.961
EPLC-272H,0.774,1.15,1.12,0.807,0.927
NCI-H1993,1.01,1.07,1.19,0.677,0.971
BEN,0.834,0.959,1.04,–,0.957
NCI-H1734,0.945,1.07,1,0.692,1.06
NCI-H2347,1.07,1.02,0.743,1.06,1.07
NCI-H647,0.873,0.979,1.01,0.909,1.07
COR-L 105,0.985,0.943,1,0.881,1.02
H3255,0.956,1.03,1.04,0.826,0.97
LCLC-97TM1,0.959,0.983,1.03,0.758,0.966
NCI-H3122,1,1.03,1.04,1.02,1.07
HCC-366,1.01,1.08,1.01,0.96,1.02
SK-LU-1,1.05,1.04,0.777,0.945,1.19
NCI-H1944,1.02,0.975,1.02,–,1.06
HCC-15,1.09,1.06,1.1,0.808,1.05
NCI-H1650,0.942,0.915,1.2,0.995,0.976
NCI-H2228,0.972,1.08,0.913,0.846,1.15
NCI-H1299,1,0.98,0.955,1.04,1.01
NCI-H520,1.11,1.04,1.09,0.819,1.04
NCI-H1395,0.928,1,1.09,0.768,0.97
NCI-H2170,0.988,1,0.909,–,0.975
NCI-H2023,0.969,0.978,1.03,0.882,1.03
